According to patent US11118200B2, “Method for preparing amines from aldehydes and ketones by biocatalysis” (COMMISSARIAT A L'ENERGIE ATOMIQUE ET AUX ENERGIES …, priority 2017, dated 2021):
Marks after values point to notes of the source that are not given here.

Columns and labels:
enzyme of SEQ ID NO:6 = experiment: Screening of carbonyl-containing compounds with ammonia as amine source (specific activity, absorbance at 340 nm); format: biochemical, Mycobacterium sp. GA-2829; conditions: mixture NADH/NADPH (0.1 mM each), 10 mM of carbonyl-containing compound
Protocol: (§1) All the reactions were conducted at 25° C. in spectrophotometric cell (10 mm light path). […] Carbonyl-containing compound (5 or 10 mM) is then added to initiate the reaction (reaction final volume 100 μL). The initial slope measured at 340 nm determined the specific activity of the enzyme according to Beer-Lambert's law and the molar absorptivity of β-NADH (ϵ=6298 M^−1 cm^−1).

enzyme of SEQ ID NO:5 [1] = experiment: as above; format: biochemical, Mycobacterium vaccae ATCC 25954; conditions: mixture NADH/NADPH (0.1 mM each), 5 mM of carbonyl-containing compound
Protocol: as §1

enzyme of SEQ ID NO:3 [2] = experiment: Reduction of cyclic imine substrates; format: biochemical, Microbacterium sp. MA1
enzyme of SEQ ID NO:2 [3] = experiment: Reduction of cyclic imine substrates; format: biochemical, Cystobacter fuscus DSM 2262
enzyme of SEQ ID NO:4 = experiment: Reduction of cyclic imine substrates; format: biochemical, Aminomonas paucivorans DSM 12260
enzyme of SEQ ID NO:1 [4] = experiment: Reduction of cyclic imine substrates; format: biochemical, Mycobacterium smegmatis
enzyme of SEQ ID NO:3 [5] = experiment: Screening of carbonyl-containing compounds with methylamine as amine source; format: biochemical, Microbacterium sp. MA1; conditions: preliminary
Protocol: (§2) All the reactions were conducted at 25° C. in spectrophotometric cell (10 mm light path). To a mixture of TRIS.HCl buffer (50 mM, pH 9.5), NADH and NADPH (0.1 mM each), methylamine (500 mM) and an appropriate amount of purified enzyme was added. Carbonyl-containing compound (5 mM) is then added to initiate the reaction (reaction final volume 100 μL). The initial slope measured at 340 nm determined the specific activity of the enzyme according to Beer-Lambert's law and the molar absorptivity of β-NADH (ϵ=6298 M^−1 cm^−1).

PheDH-AmDH K77S/N276L = PheDH-AmDH K77S/N276L (Pseudobacillus badius, UniProt Q59224, K78S/N277L); conditions: prior-art engineered enzyme; cited from earlier work
enzyme of SEQ ID NO:2 [6] = experiment: Screening of carbonyl-containing compounds with ammonia as amine source (specific activity, absorbance at 340 nm); format: biochemical, Cystobacter fuscus DSM 2262; conditions: 0.2 mM NADH (best of NADH/NADPH), 10 mM of carbonyl-containing compound, ammonia as amine source
Protocol: (§3) All the reactions were conducted at 25° C. in spectrophotometric cell (10 mm light path). To a mixture of ammonium formate buffer (2 M NH4HCO2/NH4OH, pH 9.5), NADH or NADPH (0.2 mM) and an appropriate amount of purified enzyme was added.

Bbad-AmDH = conditions: as described in Pushpanath et al.; cited from earlier work
enzyme of SEQ ID NO:1 [7] = experiment: Screening of carbonyl-containing compounds with methylamine as amine source; format: biochemical, Mycobacterium smegmatis; conditions: preliminary
Protocol: as §2

enzyme of SEQ ID NO:1 [8] = experiment: Screening of carbonyl-containing compounds with ammonia as amine source (specific activity, absorbance at 340 nm); format: biochemical, Mycobacterium smegmatis; conditions: 0.2 mM NADH (best of NADH/NADPH), 10 mM of carbonyl-containing compound, ammonia as amine source
Protocol: as §3

Cal-AmDH = conditions: as described in Pushpanath et al.; cited from earlier work
enzyme of SEQ ID NO:5 [9] = experiment: Screening of carbonyl-containing compounds with methylamine as amine source; format: biochemical, Mycobacterium vaccae ATCC 25954; conditions: preliminary
Protocol: as §2

enzyme of SEQ ID NO:3 [10] = experiment: Screening of carbonyl-containing compounds with ammonia as amine source (specific activity, absorbance at 340 nm); format: biochemical, Microbacterium sp. MA1; conditions: 0.2 mM NADH (best of NADH/NADPH), 10 mM of carbonyl-containing compound, ammonia as amine source
Protocol: as §3

[11] = methylamine (500 mM) as amine source, NADH/NADPH (0.1 mM each), carbonyl-containing compound 5 mM

Chain of PheDH-AmDH K77S/N276L (Q59224 whole entry K78S/N277L): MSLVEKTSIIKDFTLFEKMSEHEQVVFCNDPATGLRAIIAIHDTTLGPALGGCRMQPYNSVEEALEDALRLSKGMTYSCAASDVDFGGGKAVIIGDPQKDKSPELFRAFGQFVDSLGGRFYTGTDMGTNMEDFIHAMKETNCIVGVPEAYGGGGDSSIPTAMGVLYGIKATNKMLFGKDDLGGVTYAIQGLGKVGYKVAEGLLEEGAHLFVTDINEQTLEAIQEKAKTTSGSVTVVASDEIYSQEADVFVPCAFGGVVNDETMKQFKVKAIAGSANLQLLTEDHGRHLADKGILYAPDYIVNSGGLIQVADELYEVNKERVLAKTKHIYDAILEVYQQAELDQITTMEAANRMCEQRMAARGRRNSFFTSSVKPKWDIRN

O=C1CCCCC1 [drawing 168]
Specific activity, SEQ ID NO: 6 (enzyme of SEQ ID NO:6): 13.9 mU.mg^-1
Specific activity, SEQ ID NO: 5 (enzyme of SEQ ID NO:5 [1]): 75.6 mU.mg^-1

CC1=NCCC1
reduction of cyclic imine by enzyme of SEQ ID NO:3 (in words) (enzyme of SEQ ID NO:3 [2]): able to catalyze
reduction of cyclic imine by enzyme of SEQ ID NO:2 (in words) (enzyme of SEQ ID NO:2 [3]): able to catalyze
reduction of cyclic imine by enzyme of SEQ ID NO:4 (in words) (enzyme of SEQ ID NO:4): able to catalyze
reduction of cyclic imine by enzyme of SEQ ID NO:1 (in words) (enzyme of SEQ ID NO:1 [4]): able to catalyze

O=C1CCCCC1 [cyclohexanone]
Specific activity, SEQ ID NO: 3 (enzyme of SEQ ID NO:3 [5]; [11]): 90.4 mU.mg-^1
activity of enzyme of SEQ ID NO:3 on the substrate with methylamine (in words) (enzyme of SEQ ID NO:3 [5]; methylamine as amine source): active
specific activity of PheDH-AmDH K77S/N276L (PheDH-AmDH K77S/N276L): 27 mU·mg^−1
Specific activity, SEQ ID NO: 2 (enzyme of SEQ ID NO:2 [6]): 135.9 mU.mg^-1
Specific activity, SEQ ID NO: 2 (enzyme of SEQ ID NO:2 [6]; listed as drawing 130): 135.9^a mU.mg^-1
specific activity of Bbad-AmDH (Bbad-AmDH): 11.3 mU·mg^−1
Specific activity, SEQ ID NO: 1 (enzyme of SEQ ID NO:1 [7]; [11]): 10.1 mU.mg-^1
activity of enzyme of SEQ ID NO:1 on the substrate with methylamine (in words) (enzyme of SEQ ID NO:1 [7]; methylamine as amine source): active
Specific activity, SEQ ID NO: 1 (enzyme of SEQ ID NO:1 [8]): 196.2 mU.mg^-1
Specific activity, SEQ ID NO: 1 (enzyme of SEQ ID NO:1 [8]; listed as drawing 130): 196.2^a mU.mg^-1
specific activity of Cal-AmDH (Cal-AmDH): 12.7 mU·mg^−1
Specific activity, SEQ ID NO: 5 (enzyme of SEQ ID NO:5 [9]; [11]): 12.6 mU.mg-^1
activity of enzyme of SEQ ID NO:5 on the substrate with methylamine (in words) (enzyme of SEQ ID NO:5 [9]; methylamine as amine source): active
Specific activity, SEQ ID NO: 3 (enzyme of SEQ ID NO:3 [10]): 614.5 mU.mg^-1
Specific activity, SEQ ID NO: 3 (enzyme of SEQ ID NO:3 [10]; listed as drawing 130): 614.5^a mU.mg^-1
